Experimental data as given in publication PMC12339328, “Therapeutic effect and mechanism of gigantol on hyperuricemia” (Frontiers in Endocrinology, 2025).
Where “and” joins values, the source holds several entries; their conditions need not be identical. Equal values may be shown once. Entries after “also recorded” stand apart in the source; their conditions may differ. Read-outs that look alike come from different tables or passages of the source.

Key:
TNF-α [1] = assay: TNF-α level in HK-2 HUA cell model (ELISA); type: cell-based, human; settings: adenosine and XOD induction; gigantol 25, 50, 100 μmol/L
Procedure: (§1) HK-2 cells were treated as described above. The supernatant of the medium was collected, and the levels of proinflammatory cytokines (TNF-α, IL-6, and IL-1β) and the NLRP3 inflammasome component in the supernatant were detected using commercially available ELISA kits according to the manufacturers’ protocols.

IL-1β [2] = assay: IL-1β content in serum and kidney of HUA mice (ELISA); type: in vivo; settings: gigantol low, medium, high dose intragastric, vs model group
Procedure: (§2) Blood obtained from mice in each group was centrifuged at 3,000 r/min for 15 min in a low-temperature high-speed centrifuge. Then, the serum was separated, and the levels of UA, CRE, and BUN in the serum were measured by the kits. The levels of TNF-α, IL-1β, IL-6, and NLRP3 in serum were detected by ELISA kits. Liver and kidney tissues were homogenized by adding ice-cold saline, and homogenates were centrifuged at 12,000 r/min for 10 min. XOD activity in the supernatant of the liver tissues was measured, and the levels of TNF-α, IL-1β, IL-6, and NLRP3 in the supernatant of the kidney tissues were measures by ELISA kits.

XOD [3] = settings: HUA cell model; gigantol 25, 50, 100 μmol/L, dose-dependent; vs model; p < 0.05, p < 0.001, p < 0.001
IL-6 [4] = assay: IL-6 level in HK-2 HUA cell model (ELISA); type: cell-based, human; settings: adenosine and XOD induction; gigantol 25, 50, 100 μmol/L
Procedure: as §1

NLRP3 = NLRP3 protein expression in kidney of HUA mice (Western blot); type: in vivo; settings: gigantol high-dose group (20 mg/kg), vs model group, p < 0.01
ASC = ASC protein expression in kidney of HUA mice (Western blot); type: in vivo; settings: gigantol high-dose group (20 mg/kg), vs model group, p < 0.001
TNF-α [5] = assay: TNF-α level in serum and kidney of HUA mice (ELISA); type: in vivo; settings: HUA mice treated with gigantol; vs model group; p < 0.01
Procedure: as §2

HK-2 cells = assay: UA level in HK-2 HUA cell model; type: cell-based, human; settings: adenosine + XOD induced; gigantol 25, 50, 100 μmol/L; p < 0.001
OAT1 = OAT1 protein expression in kidney of HUA mice (Western blot); settings: gigantol medium-dose and high-dose groups (10, 20 mg/kg), vs model group, p < 0.01
IL-6 [6] = assay: IL-6 level in serum and kidney of HUA mice (ELISA); type: in vivo; settings: HUA mice treated with gigantol; vs model group; p < 0.01
Procedure: as §2

GLUT9 [7] = assay: GLUT9 protein expression in HK-2 cells (Western blot); settings: for GLUT (GLUT9) / β (reference protein) ratio / GLUT (GLUT9) protein expression, band value: HK-2, replicates 1-3; for GLUT9 protein expression in HK-2 cells: HUA cell model, gigantol 25, 50, 100 µmol/L, especially high-dose (p < 0.001), vs model
[8] = rat, in vivo
Procedure: Whole blood was taken into heparinized tubes at predefined time points (2, 5, 10, 20, and 30 min, and 1, 2, 4, 6, 8, and 12 h) after administration, and plasma was separated by centrifugation and stored at −20°C until testing. […] Whole blood was taken into heparinized tubes at predefined time points (2, 5, 10, 20, and 30 min, and 1, 2, 4, 6, 8, and 12 h) after administration, and plasma was separated by centrifugation and stored at −20°C until testing. […] Pharmacokinetic parameters were calculated by using the pharmacokinetics software WinNonlin 8.1.

IL-1β [9] = assay: IL-1β content in HK-2 HUA cell model (ELISA); type: cell-based, human; settings: only the high-dose group showing a downward trend (p < 0.01)
Procedure: as §1

Caspase-1 [10] = assay: Caspase-1 protein expression in HK-2 cells (Western blot); settings: for CASPASE / β (reference protein) ratio / CASPASE protein expression, band value: HK-2, replicates 1-3
GLUT9 [11] = assay: GLUT9 protein expression in kidney of HUA mice (Western blot); type: in vivo; settings: gigantol, dose-dependent, vs model group
OAT3 [12] = assay: OAT3 protein expression in kidney of HUA mice (Western blot); settings: vs model group
caspase-1 [13] = assay: Caspase-1 protein expression in kidney of HUA mice (Western blot); type: in vivo; settings: gigantol high-dose group (20 mg/kg), vs model group, p < 0.001
XOD [14] = settings: HUA mice; each dose of gigantol (5, 10, 20 mg/kg); vs model group; p < 0.01, p < 0.01, p < 0.001
OAT3 [15] = assay: OAT3 protein expression in HK-2 cells (Western blot); settings: for OAT3 / β (reference protein) ratio / OAT3 protein expression, band value: HK-2, replicates 1-3
XOD [16] = settings: for xod / β (reference protein) ratio / xod protein expression, band value: AML12, replicates 1-3; for XOD protein expression in AML12 cells: HUA cell model, gigantol 25, 50, 100 µmol/L, vs model group, p < 0.001
[17] = system: liver tissue in mice with HUA; assay: Liver histopathology of HUA mice (HE staining); type: in vivo; settings: 200×, gigantol 5, 10, 20 mg/kg
Text: The kidney and liver tissues were fixed with 4% paraformaldehyde solution. After paraffin embedding and sectioning, the paraffin on the slide was removed with xylene and soaked in different concentrations of ethanol and deionized water. The liver and kidney tissues were stained according to the HE staining procedure, and then the morphology of the kidney tissues and liver tissues was observed under the microscope.

[18] = system: mice with HUA induced by potassium oxonate; assay: Serum and urine UA, CRE and BUN in HUA mice; type: in vivo
Procedure: On day 6, the mice were transferred to a metabolic cage, given free water and diet, and 24-h urine samples were collected for the determination of UA, CRE, and BUN levels. One hour after the last administration, 2 mL of blood was taken through eyeball extraction, and the mice were killed by euthanasia. Mice were dissected and the livers and kidneys were removed.
as §2

[19] = 24-h urine, after gigantol treatment
[20] = gigantol 5, 10, 20 mg/kg gavage 7 days, vs model group, high dose p < 0.001

5-[2-(3-hydroxy-5-methoxyphenyl) ethyl]-2-methoxyphenol [gigantol]
TNF-α level in HK-2 cells (TNF-α [1]): tended to decrease dose-dependently
IL-1β level in kidney (IL-1β [2]): decreased
IL-1β level in serum (IL-1β [2]): decreased
XOD activity in AML12 cells (XOD [3]): downregulated
IL-6 level in HK-2 cells (IL-6 [4]): tended to decrease dose-dependently
NLRP3 protein expression in kidney (NLRP3): decreased significantly
ASC protein expression in kidney (ASC): decreased significantly
renal TNF-α level (TNF-α [5]): significantly lower
serum TNF-α level (TNF-α [5]): significantly lower
UA level in HK-2 cells (HK-2 cells): suppressed
OAT1 protein expression in kidney (OAT1): increased
renal IL-6 level (IL-6 [6]): significantly lower
serum IL-6 level (IL-6 [6]): significantly lower
GLUT (GLUT9) / β (reference protein) ratio (GLUT9 [7]; 中 = gigantol 50 µmol/L): 0.824 and 0.7786 and 0.7289
GLUT (GLUT9) protein expression, band value (GLUT9 [7]; 中 = gigantol 50 µmol/L): 143.264 and 144.598 and 138.372
GLUT (GLUT9) / β (reference protein) ratio (GLUT9 [7]; 低 = gigantol 25 µmol/L): 0.9479 and 0.8166 and 0.8642
GLUT (GLUT9) protein expression, band value (GLUT9 [7]; 低 = gigantol 25 µmol/L): 156.942 and 153.38 and 155.361
GLUT (GLUT9) / β (reference protein) ratio (GLUT9 [7]; 高 = gigantol 100 µmol/L): 0.7095 and 0.5035 and 0.629
GLUT (GLUT9) protein expression, band value (GLUT9 [7]; 高 = gigantol 100 µmol/L): 132.094 and 98.555 and 122.472
GLUT9 protein expression in HK-2 cells (GLUT9 [7]): significantly decreased
GLUT9 protein expression in HK-2 cells (GLUT9 [7]; listed as Gigantol): decreased
F [8]: 16.82%
time of second peak of blood concentration [8]: approximately 2 h
inhibitory effect on IL-1β in HK-2 cells (IL-1β [9]): relatively weak
CASPASE / β (reference protein) ratio (Caspase-1 [10]; 中 = gigantol 50 µmol/L): 0.976 and 0.8978 and 0.9502
CASPASE protein expression, band value (Caspase-1 [10]; 中 = gigantol 50 µmol/L): 169.696 and 166.728 and 180.371
CASPASE / β (reference protein) ratio (Caspase-1 [10]; 低 = gigantol 25 µmol/L): 0.8128 and 1.007 and 1.064
CASPASE protein expression, band value (Caspase-1 [10]; 低 = gigantol 25 µmol/L): 134.57 and 189.238 and 191.281
CASPASE / β (reference protein) ratio (Caspase-1 [10]; 高 = gigantol 100 µmol/L): 0.7864 and 0.8188 and 0.8437
CASPASE protein expression, band value (Caspase-1 [10]; 高 = gigantol 100 µmol/L): 146.411 and 160.261 and 164.281
Caspase-1 protein level in HK-2 cells (Caspase-1 [10]; HUA cell model, gigantol 25, 50, 100 µmol/L, vs model group): significantly reduced; also recorded: decreased significantly
GLUT9 protein expression in kidney (GLUT9 [11]): significantly reduced
OAT3 protein expression in kidney (OAT3 [12]; gigantol low-dose group (5 mg/kg)): not in the low-dose group
OAT3 protein expression in kidney (OAT3 [12]; gigantol medium-dose and high-dose groups (10, 20 mg/kg), p < 0.05): increased
caspase-1 protein expression in kidney (caspase-1 [13]): decreased significantly
XOD protein expression in liver (XOD [14]): significantly decreased
OAT3 / β (reference protein) ratio (OAT3 [15]; 中 = gigantol 50 µmol/L): 1.0464 and 0.924 and 0.8748
OAT3 protein expression, band value (OAT3 [15]; 中 = gigantol 50 µmol/L): 181.929 and 171.604 and 166.063
OAT3 / β (reference protein) ratio (OAT3 [15]; 低 = gigantol 25 µmol/L): 0.8292 and 0.8811 and 0.9428
OAT3 protein expression, band value (OAT3 [15]; 低 = gigantol 25 µmol/L): 137.293 and 165.504 and 169.481
OAT3 / β (reference protein) ratio (OAT3 [15]; 高 = gigantol 100 µmol/L): 0.9571 and 0.9652 and 1.021
OAT3 protein expression, band value (OAT3 [15]; 高 = gigantol 100 µmol/L): 178.19 and 188.909 and 198.88
OAT3 protein level in HK-2 cells (OAT3 [15]; HUA cell model, 50 and 100 µmol/L, vs model group): significantly increased
OAT3 protein expression in HK-2 cells (OAT3 [15]; HUA cell model, gigantol 25, 50, 100 µmol/L, dose-dependent): increase
xod / β (reference protein) ratio (XOD [16]; 中 = gigantol 50 µmol/L): 1.517 and 1.501 and 1.526
xod protein expression, band value (XOD [16]; 中 = gigantol 50 µmol/L): 128.129 and 199.117 and 168.261
xod / β (reference protein) ratio (XOD [16]; 低 = gigantol 25 µmol/L): 1.791 and 1.55 and 1.796
xod protein expression, band value (XOD [16]; 低 = gigantol 25 µmol/L): 141.242 and 241.421 and 177.271
xod / β (reference protein) ratio (XOD [16]; 高 = gigantol 100 µmol/L): 1.329 and 1.446 and 1.393
xod protein expression, band value (XOD [16]; 高 = gigantol 100 µmol/L): 108.633 and 187.088 and 176.298
XOD protein expression in AML12 cells (XOD [16]): significantly decreased
XOD protein expression in AML12 cells (XOD [16]; listed as Gigantol): downregulated
XOD protein expression in AML12 cells (XOD [16]; listed as gigatol): significantly reduced in a dose-dependent manner
liver histopathology [17]: the atrophy of liver cells significantly improved
urine BUN level [18, 19]: increased
urine CRE level [18, 19]: increased
urine UA content ([18]; 24-h urine, gigantol 5, 10, 20 mg/kg gavage, vs model group, p < 0.01): increased significantly in a dose-dependent manner
serum BUN level [18, 20]: significantly reduced
serum CRE level [18, 20]: significantly reduced
serum UA level [18, 20]: significantly reduced
